Test results taken from publication PMC5142287, “Weight control interventions improve therapeutic efficacy of dacarbazine in melanoma by reversing obesity-induced drug resistance” (Cancer & Metabolism, 2016).
“Also recorded” adds a separate entry of the source.

Assays:
[1] = Obesity-associated factors in B16F10-isografted ND C57BL/6J mice; assay type: in vivo; details: end of experiment
From the text: Blood glucose levels and serum lipids were estimated as described previously. Insulin, leptin, and adiponectin levels in the serum were estimated by mouse-specific respective ELISA kits as described. Resistin, IL-6, and TNF-α levels in the serum were detected by indirect ELISA as described previously.

B16F10 cells [2] = assay: Long-term survival assay, B16F10 cells in serum from experimental mice; assay type: cell-based, Murine
Description: After 24 h, DMEM containing 5% serum collected from experimental C57BL/6J mice (as illustrated in Fig. 1) was added and cells were cultured chronically for 10 days.

B16F1 cells = assay: Long-term survival assay, B16F1 cells in CM from 3T3-L1 cells; assay type: cell-based, Murine
From the text: Additional file 1: Table S1. Composition of diets used in the study. Normal diet (ND) was procured from Amrut Laboratory Animal Feed, Pune, India, and high fat diet (HFD) was purchased from Provimi Animal Nutrition Pvt. Ltd., Bangalore, India. *, HFD was also supplemented with 400 g groundnut and 200 g dried coconut per kg body weight of mice. […] Obesity-associated parameters in the experimental ND mice recorded at the end of the experiment. ND male C57BL/6J mice were divided into two major groups. One group was orally treated with orlistat every alternate day before inoculating with B16F10 cells. The second group was orally given vehicle control on every alternate day for 8 weeks. Mice from both the groups (N = 11 per each group) were injected (s.c.) with B16F10 cells (2 × 10^5 cells/mouse in 100 μl PBS). Their body weight was monitored weekly throughout the study, and serum was collected at the end of the experiment. Blood glucose, serum TG, serum cholesterol, serum-free fatty acids, and serum LDLc were measured. Serum factors including leptin, adiponectin, insulin, resistin, IL-6, and TNF-α were estimated by ELISA. […] Effect of obesity-associated serum factors on the protein level of P-gp, Cav-1, and FASN in B16F1 cells. […] Thereafter, these cells were subjected to immunofluorescence confocal staining of the indicated molecules. The data were recorded using Zeiss LSM510 META Confocal Microscope. (Scale bar = 20 μm). […] Data were acquired on FACS Calibur and analyzed using BD CellQuest Pro software. The data are representative of experiments performed three times. (PDF 120 kb) Additional file 5: Figure S3. Effect of inhibition of FASN, Cav-1, and P-gp on response of B16F1 cells to DTIC. […] Thereafter, these cells were subjected to long-term survival assay. […] The medium was changed every 2–3 days.

metastatic melanoma = system: metastatic melanoma; set-up: method as in PMID 10840932; details: cited from earlier work
B16F10 cells [3] = assay: MTT assay, B16F10 cells grown in conditioned medium from 3T3-L1 cells; details: for IC50: Mus musculus, 10 days, DTIC 48 h, MTT
B16F10 melanoma = B16F10 melanoma isograft in ND C57BL/6J mice: tumor growth and survival
Description: Melanoma cells were injected and orlistat treatment was continued. Following tumor formation, all groups of mice were treated with vehicle (acidified water) or DTIC, and tumor volume was followed up in these mice throughout the study as mentioned above. […] At the end of the experiment, mice were sacrificed, tumors were excised, and the samples were immediately preserved at −80 °C until further use. Five mice from each group were followed up for survival studies as mentioned above.

B16F10 cells [4] = assay: MTT assay, B16F10 cells grown in medium with 5% serum of ND or HFD mice; details: for IC50: Mus musculus, cells grown 10 days, DTIC 48 h, MTT
[5] = LC-MS/MS quantitation of DTIC in tumor, plasma, liver and adipose tissue
Description: The samples were introduced to the mass spectrometer through a reversed-phase column (Agilent ZORBAX SB-C18, 2.1 × 30 mm, 3.5 μm). The mobile phase containing water and acetonitrile with 0.1% formic acid was infused at a flow rate of 0.4 ml min^−1. The MS scan range was set between 100 and 1000 m/z, with the dry gas flow and dry gas temperature maintained at 6 L min^−1 and 320 °C, respectively. […] All the mass spectrometric data were acquired in positive ionization mode using Agilent MassHunter data acquisition software, version B.05.01. MassHunter Quantitative analysis software, version B.07.00 was used for the generation of calibration curves and subsequent quantitation of DTIC in the samples. Calibration curves were created using linear fitting, 1/x weighting and including the origin. Calibration standards (0.5–800 ng) were prepared using standard DTIC. All the samples including the standard DTIC preparations were spiked with leucine enkephalin (10 ng) as internal standard. […] The quantitation capability of this method is evaluated by using samples with known concentrations.

CN(C)/N=N/c1[nH]cnc1C(N)=O [DTIC, Dacarbazine]
Blood glucose ([1]; mean): 161.17 mg/dL
Serum IL-6 ([1]; mean): 20.19 pg/mL
Serum LDLc ([1]; mean): 53.12 mg/dL
Serum TG ([1]; mean): 55.40 mg/dL
Serum TNF-D ([1]; mean): 12.35 pg/mL
Serum adiponectin ([1]; mean): 13873 ng/mL
Serum cholesterol ([1]; mean): 82.82 mg/dL
Serum free fatty acids ([1]; mean): 0.90 mM/L
Serum insulin ([1]; mean): 0.114 µg/L
Serum leptin ([1]; mean): 15.74 ng/mL
Serum resistin ([1]; mean): 0.99 ng/mL
Body weight ([1]; mean (SD on next line)): 21.1 g
Increase of sensitivity to DTIC (B16F10 cells [2]; HFD serum, FASN, Cav-1 and P-gp simultaneously inhibited (cerulenin, methyl β-cyclodextrin, verapamil)): approximately 80%
Reduction of cell survival (B16F10 cells [2]; serum from orlistat-treated or diet-shifted obese mice, DTIC at 1415 μM): approximately 70%
Effect on survival (B16F1 cells; CM from differentiated ID adipocytes): did not remarkably affect
Improvement of sensitivity to DTIC (B16F1 cells; CM from differentiated adipocytes, simultaneous treatment with all three inhibitors): approximately 80%
Survival remaining (B16F1 cells; CM from orlistat-treated differentiating adipocytes, DTIC at 649 μM): approximately 30%
Overall response rate (metastatic melanoma): 20–25%
Increase of concentration for 50% cell killing, CM of differentiated adipocytes vs preadipocytes (B16F10 cells [3]; B16F10 cells): ~ 5 fold
IC50 (B16F10 cells [3]; B16-F10, CM from differentiated adipocytes (ID)): 3.25 mM
IC50 (B16F10 cells [3]; B16-F10, CM from undifferentiated preadipocytes (PA)): 0.649 mM
Survival of tumor-bearing mice (B16F10 melanoma): prolonged
Tumor progression (tumor volume and weight) (B16F10 melanoma; DTIC 80 mg/kg i.p. 5 days, orlistat 10 mg/kg oral alternate days): significantly reduced; also recorded: significantly decreased
Increase of IC50 in HFD serum vs ND serum (B16F10 cells [4]; B16F10 cells): ~ 5 fold
IC50 (B16F10 cells [4]; B16-F10, HFD serum (5%)): 6.69 mM
IC50 (B16F10 cells [4]; B16-F10, ND serum (5%)): 1.42 mM
DTIC level in the plasma, liver, and adipose tissue ([5]; HFD mice compared to ND mice): higher
Level of DTIC in tumors from HFD mice, fold less than in ND counterparts ([5]; tumor, mass spectrometry): ~ 6 fold
